# Measurements taken from ChEMBL document CHEMBL1158245, “Antifungal and molluscicidal saponins from Serjania salzmanniana” (J Nat Prod, 1996).
# Tests used:
# Aspergillus fumigatus = experiment: Antifungal activity against Aspergillus fumigatus ATCC 13073 after 48 hrs by microplate broth assay; format: functional; details: ATCC 13073, 48 h
# Cryptococcus neoformans = experiment: Antifungal activity against Cryptococcus neoformans ATCC 36556 after 48 hrs by microplate broth assay; format: functional; details: ATCC 36556, 48 h
# Biomphalaria alexandrina [1] = experiment: Molluscicidal activity against Biomphalaria alexandrina assessed as number of dead snail at 10 ppm after 24 hrs allowed to recover for an additional 24 hrs; format: organism-based; details: in vivo
# Biomphalaria alexandrina [2] = experiment: Molluscicidal activity against Biomphalaria alexandrina assessed as number of dead snail at 20 ppm after 48 hrs; format: organism-based; details: in vivo
# Biomphalaria alexandrina [3] = experiment: Molluscicidal activity against Biomphalaria alexandrina assessed as number of dead snail at 10 ppm after 48 hrs; format: organism-based; details: in vivo
# Candida albicans = experiment: Antifungal activity against Candida albicans ATCC 10259 after 24 hrs by microplate broth assay; format: functional; details: ATCC 10259, 24 h
# Biomphalaria alexandrina [4] = experiment: Molluscicidal activity against Biomphalaria alexandrina assessed as number of dead snail at 20 ppm after 24 hrs allowed to recover for an additional 24 hrs; format: organism-based; details: in vivo
# Biomphalaria alexandrina [5] = experiment: Molluscicidal activity against Biomphalaria alexandrina assessed as number of dead snail at 20 ppm after 24 hrs; format: organism-based; details: in vivo
# Biomphalaria alexandrina [6] = experiment: Molluscicidal activity against Biomphalaria alexandrina assessed as number of dead snail at 10 ppm after 24 hrs; format: organism-based; details: in vivo
Structure (SMILES),MIC (Aspergillus fumigatus) [µg/mL],MIC (Cryptococcus neoformans) [µg/mL],Activity (Biomphalaria alexandrina [1]),Activity (Biomphalaria alexandrina [2]) [%],Activity (Biomphalaria alexandrina [3]) [%],MIC (Candida albicans) [µg/mL],Activity (Biomphalaria alexandrina [4]),Activity (Biomphalaria alexandrina [5]),Activity (Biomphalaria alexandrina [6])
C[C@@H]1O[C@@H](O[C@H]2[C@H](O[C@H]3CC[C@@]4(C)[C@@H](CC[C@]5(C)[C@@H]4CC=C4[C@@H]6CC(C)(C)CC[C@]6(C(=O)O)CC[C@]45C)[C@]3(C)CO)OC[C@H](O[C@@H]3O[C@H](CO)[C@@H](O)[C@H](O)[C@H]3O)[C@@H]2O)[C@H](O)[C@H](O[C@@H]2OC[C@H](O)[C@H](O)[C@H]2O)[C@H]1O [SALZMANNIANOSIDE B],≥ 250,≤ 8,Active,70,100,≥ 125,–,–,–
C[C@@H]1O[C@@H](O[C@H]2[C@H](O[C@H]3CC[C@@]4(C)[C@@H](CC[C@]5(C)[C@@H]4CC=C4[C@@H]6CC(C)(C)CC[C@]6(C(=O)O)CC[C@]45C)[C@]3(C)CO)OC[C@H](O[C@@H]3O[C@H](CO)[C@@H](O)[C@H](O)[C@H]3O)[C@@H]2O)[C@H](O)[C@H](O)[C@H]1O [HEDERACOLCHISIDE A],≥ 250,≤ 8,–,100,90,≤ 16,Active,Active,–
C[C@@H]1O[C@@H](O[C@H]2[C@H](O[C@H]3CC[C@]4(C)[C@H]5CC=C6[C@@H]7CC(C)(C)CC[C@]7(C(=O)O)CC[C@@]6(C)[C@]5(C)CC[C@H]4C3(C)C)OC[C@H](O[C@@H]3O[C@H](CO)[C@@H](O)[C@H](O)[C@H]3O)[C@@H]2O)[C@H](O)[C@H](O)[C@H]1O [HEDERACOLCHISIDE A1],–,–,Active,100,100,–,Active,Active,Active
C[C@@H]1O[C@@H](O[C@H]2[C@H](O[C@H]3CC[C@]4(C)[C@H]5CC=C6[C@@H]7CC(C)(C)CC[C@]7(C(=O)O)CC[C@@]6(C)[C@]5(C)CC[C@H]4[C@]3(C)C=O)OC[C@H](O[C@@H]3O[C@H](CO)[C@@H](O)[C@H](O)[C@H]3O)[C@@H]2O)[C@H](O)[C@H](O)[C@H]1O [SALZMANNIANOSIDE A],≥ 125,≤ 8,Not Active,100,0,≤ 16,Active,Active,Not Active
